# Test system: AMPK
# Test: AMPK activation measurements in cultured cells (Western Blot of pThr172 AMPK alpha and pSer79 ACC)
# Type: cell-based, human
# Conditions: for activation of AMPK (anti-phosphoThr172 AMPK alpha, Western Blot) / phosphorylation of ACC substrate (anti-phosphoSer79ACC, Western Blot): HEK293 cells treated for 1 hour; for endogenous levels of AMPKα pT172: HEK293 cells, increasing doses, phenformin 5 mM as activation control; for activation of the AMPK complex: at the indicated doses (figures), cultured HEK293 cells
# Description: AMPK activation measurements in cultured cells by means of compounds 7 and 16.
# Cell line and treatments. The cell line that was used in the treatments with the different assayed reagents was HEK293T (human embryonic kidney cells). Cells were grown in DMEM (Dulbecco's Modified Eagle's Medium) with 25 mM of glucose supplemented with 10% of inactivated fetal bovine serum, 2 mM glutamine, 100 units/ml of penicillin and 100 μg/ml of streptomycin, in a humid atmosphere at 37° C. with 5% of CO2. Cells were grown on 60 mm (p. 60) plates to obtain 70-80% of confluence. Cells were washed in Krebs Ringer buffer (KRB: NaCI […], CaCl2 […], KH2PO4 0.5 mM, KCl 3 mM, NaHCO3 2.5 mM, MgSO40.5 mM, HEPES 10 mM pH 7.4, 95:5 O2/CO2) tempered at 37° C. and subsequently treated for 1 hour at 37° C. in a culture oven, adding the adequate quantities of 7 and 16 (5 mM stock in DMSO) dissolved in KRB/25 mM glucose to reach the final concentrations indicated in the figures. Phenformin 5 mM was used as an activation control.
# Preparation of HEK293T cell extracts. After the corresponding treatments, the supernatant was removed and cells were quickly-frozen in liquid N2. The plates were processed one by one and kept in ice , firstly adding the cold lysis buffer. The composition of the buffer was as follows: Tris 10 mM pH 7.4, EDTA 15 mM pH 8.0, NaF 50 mM, Na4P2O7 15 mM, sacarose 0.6 M, 2-Mercaptoethanol 15 mM, a mixture of protease inhibitors without EDTA (Roche) and 1 mM PMSF. Cells were collected in a lysis buffer with the help of a scraper and were lysed, passing each sample through 24 G×⅝″ syringes four times. A small amount was reserved to measure the quantity of protein using the Bradford protein assay and loading buffer for electrophoresis was added to the rest and boiled for 5 min maintaining the samples at −20° C. until their use. The concentration of proteins was determined through the Bradford method using the Bio-Rad Bradford Protein Assay Reagent (BioRad).
# Protein analysis by Western Blot. The protein extracts were analysed using SDS-PAGE in gels with 8% or 10% acrylamide and 1.5 mm thick. 30 µg of protein were loaded and transferred to a PVDF (Millipore) membrane for 1.5 hours at 100 V. Blockage was performed using 5% of skimmed milk in TBS-T for 1 hour at room temperature. Immunodetection was performed by incubating the primary antibody all night at 4° C. After three 10-minute washes at room temperature using TBS-T, they were incubated with their corresponding secondary antibody conjugated to HRP. After the three 10-minute washes at room temperature using TBS-T, the membranes were developed using ECL plus (Pierce) and processed using a FUJI LAS 3000 (Fujifilm) unit. The antibodies used were: anti-pAMPKαThr172, anti-AMPKβ1/β2, anti-ACC and anti-pACCser79 from the company Cell Signaling Technology (Danvers, Mass., USA) diluted 1:1000, and the HRP goat anti-rabbit secondary antibody from the company Santa Cruz Technology at a dilution of 1:5000 or 1:10000. The detection of bands with the anti-pAMPKαThr172 and anti-pACCser79 antibodies (AMPK substrate) with respect to their respective loading controls (anti-AMPKβ1/β2 and anti-ACC) was taken as an indicative of AMPK activation.
# [1] = concentrations between 12.5 and 50 μM, FIG. 1
# [2] = concentrations between 12.5 and 100 μM, FIG. 2
compound,measurement,setting,value
"O=C(O)c1c(-c2ccc(-c3ccccc3O)cc2)c2ccccc2n1Cc1ccccc1 [compound 7, 1-benzyl-3-(2′-hydroxy-[1,1′-biphenyl]-4-yl)-1H-indole-2-carboxylic acid]","activation of AMPK (anti-phosphoThr172 AMPK alpha, Western Blot)",[1],activates AMPK in a dose-dependent manner
same,"phosphorylation of ACC substrate (anti-phosphoSer79ACC, Western Blot)",[1],increase in phosphorylation
same,endogenous levels of AMPKα pT172,,increase in endogenous levels of AMPKα pT172
same,activation of the AMPK complex,,capable of inducing the activation of the AMPK complex
"O=C(O)c1[nH]c2ccccc2c1-c1ccc(-c2ccccc2O)cc1 [compound 16, 3-(2′-hydroxy-[1,1′-biphenyl]-4-yl)-1H-indole-2-carboxylic acid]","activation of AMPK (anti-phosphoThr172 AMPK alpha, Western Blot)",[2],activates AMPK in a dose-dependent manner
same,"phosphorylation of ACC substrate (anti-phosphoSer79ACC, Western Blot)",[2],increase in phosphorylation
same,endogenous levels of AMPKα pT172,,increase in endogenous levels of AMPKα pT172
same,activation of the AMPK complex,,capable of inducing the activation of the AMPK complex

# Source: patent US20170283378A1, “INDOLE DERIVATIVES FOR THE PREVENTION AND/OR TREATMENT OF DIABETES AND ASSOCIATED METABOLIC DISORDERS” (Consejo Superior de Investigaciones Cientificas (CSIC), priority 2014, published 2017)
